Data: patent US20240130944A1, “LRAT INHIBITORS FOR TREATING SKIN AGEING” (DSM IP Assets B.V., priority 2021, published 2024)

Key:
recombinant LRAT enzyme = target: T1, recombinant LRAT enzyme (Homo sapiens, UniProt O95237); test: LRAT inhibition assay; type: biochemical; conditions: inhibitor concentration 100 [μm]; relative to non-inhibited control reaction
T1 construct: purchased Abnova H00009227-PO1
T1 sequence (O95237 1-230): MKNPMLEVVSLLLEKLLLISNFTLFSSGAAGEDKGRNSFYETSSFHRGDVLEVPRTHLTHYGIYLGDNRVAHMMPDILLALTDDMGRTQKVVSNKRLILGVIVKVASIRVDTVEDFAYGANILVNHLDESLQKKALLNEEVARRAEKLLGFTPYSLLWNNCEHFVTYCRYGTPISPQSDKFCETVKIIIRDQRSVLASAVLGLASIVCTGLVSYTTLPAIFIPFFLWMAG
Description: The following buffer was prepared and stored at 4° C.: 0.05 M potassium phosphate, 2.5 mM dithioerythritol, pH 7.0(PO4/DTE). On the day of the assay, 1 mg BSA per mL of buffer was added to give a P04/DTE/BSA working buffer. Retinol substrate (Fluke, 1 mM) was prepared in acetonitrile (Riedel-de-Haen, Chromasolv) and stored in amber bottles under nitrogen gas at −20° C. Solutions of 4 mM dilauroyl phosphatidyl choline in ethanol were prepared and stored at −20° C. Inhibitors were prepared as 10 mM stock solutions according their solubilities in H2O, ethanol, acetonitrile, DMSO or acetic acid. The quenching solution was prepared using pure ethanol containing 50 μg/mL butylhydroxytoluene (Aldrich, BHT) A pentane solution containing 50 μg/mL BHT was used for the extractions.
To a 2 dram glass vial, the following were added in order: […] buffer to give a total volume of 500 μL, 5 μL acyl donor (dilauroyl phosphatidyl choline), 5 μL inhibitor or solvent blank (10 mM stock or further dilutions) followed by 2 μg recombinant LRAT enzyme (Abnova, H00009227-PO1). The mixture was incubated for 5 min. at 37° C. to equilibrate the reaction temperature and then 5 μL of a 1 mM retinol solution was added. The vials were capped, vortexed for 5 seconds and incubated for 60 minutes at 37° C. The reaction was quenched by adding 0.5 mL of a ethanol/BHT quenching solution. The retinoids were extracted by adding 1 mL pentane/BHT, vortexing the tubes for several seconds and centrifuging the tubes at 4000 rpm in a bench-top centrifuge for 5 min. to quickly separate the layers. The upper pentane layer was removed into a clean vial, and the aqueous layer re-extracted twice with another 1 mL pentane/BHT, as described above. […] The dried residue was stored at −20° C. and directly analyzed by HPLC. The amount of retinyl laurate was quantified for LRAT activity by integration of the HPLC or UPLC signal as described below. […]
Two HPLC protocols were used for retinoid analysis. The separation of retinol and retinol esters was performed with a reverse-phase analytical column (Waters Symmetry (R), 75×4.6 mm, 3.5 μm; Eluent A: 0.07% trifluoroacetic acid TFA in water, B: 0.07% TFA in acetonitrile (AcN), linear gradient from 1% B to 99% B in 6 min, 24 min on 99% B) or ACQUITY UPLC BEH Phenyl 1.7 μm 2.1×50 mm (0.02% TFA in water and eluent B, 0.02% TFA in AcN with a gradient of 2% to 99% B in 0.9 min, 99% B for 1 min, from 99% to 2% B in 0.1 min and flow rate 0.5 ml/min at 40° C. The eluate was monitored with a PDA detector for absorbance at 325 nm. Quantification of the retinol and retinylester peak was based on references retinoic acid and retinyl acetate (Fluke). The inhibition [%] was calculated relative to the product yield from the non-inhibited control reaction.

[1] = test system: living human skin explants; test: Epidermal thickness on living human skin explants; type: cell-based; design: key: 0 = unchanged; (+) = very slight increased; + = slight increased; ++ = moderate increased; +++ = fairly clear increased; ++++ = clear increased; conditions: topical
Description: (§1) On an abdoplasty coming from a person with a type II phototype, 51 circular skin explants of 11±1 mm in diameter were prepared. The explants were kept for survival in BEM culture medium (BIO-EC's Explants Medium, Longjumeau, France) at 37° C. in a humid, 5% CO2 atmosphere
(§2) Each morning on day 0, 1, 4 and 6 the test products (except retinol) were applied topically on the basis of […] (2 mg/cm2) of the concerned skin explants and spread using a small spatula. Each evening on day 0, 1, 4, 6 the retinol was applied topically on the basis of 2 μl/ explants (2 mg/cm2) of the concerned skin explants and spread using a small spatula. The vehicle V (DMSO 100%) was applied topically (same protocol as for products) in the morning and in the evening on day0, 1, 4, 6. The culture medium was refreshed on dayl, 4 and 6.
(§3) On day 0, 3 explants from the batch at day 0 were collected and cut in two parts. Half was fixed in buffered formalin solution and half was frozen at −80° C. On day 8, 3 explants from each experimental condition were collected and processed in the same way as on day 0.
(§4) After fixation for 24 hours in buffered formalin, the samples were dehydrated and impregnated in paraffin using a Leica PEARL dehydration automat. The samples were embedded using a Leica EG 1160 embedding station. 5-μm-thick sections were made using a Leica RM 2125 Minot-type microtome, and the sections were mounted on Superfrost® histological glass slides. The frozen samples were cut at 7-μm thickness with a Leica CM 3050 cryostat. The sections were then mounted on silanized glass slides Superfrost® Plus. The microscopical observations were realized using a Leica DMLB or Olympus BX43 microscope. Pictures were digitized with a numeric DP72 Olympus camera with cellSens storing software.
The cell viability of the epidermal and dermal structures was controlled on formalin-fixed paraffin-embedded (FFPE) skin sections after to Masson's trichrome staining, Goldner variant. The cell viability was assessed by microscopical observation.

Collagen III = Collagen III immunostaining on living human skin explants; type: cell-based; design: key: 0 = unchanged; (+) = very slight increased; + = slight increased; ++ = moderate increased; +++ = fairly clear increased; ++++ = clear increased; conditions: topical
Description: as §1, §2, §3, §4
The staining was assessed by microscopical observation

[2] = LRAT inhibitor 0.005% with Retinol 0.05%
[3] = LRAT inhibitor 0.005%, no retinol
[4] = LRAT inhibitor 0.01% with Retinol 0.05%
[5] = LRAT inhibitor 0.01%, no retinol
[6] = LRAT inhibitor 0.1% with Retinol 0.05%

CC(=O)N1CCN(C(=O)[C@H](Cc2cccc(C(=N)N)c2)NS(=O)(=O)c2ccc3ccccc3c2)CC1 [2NAPS-(L)-F(3AMD)-Pzd(N—Ac)]
LRAT inhibition, Inhibition [%] (recombinant LRAT enzyme): 38.7%

CS(=O)(=O)N1CCN(C(=O)C(N)Cc2cccc(C(=N)N)c2)CC1.Cl.Cl (centres unmarked) [H-(D,L)-F(3AMD)-Pzd(N—SO2Me) × 2 HCl, H-(D,L)-F(3AMD)-Pzd(N—SO2Me), reference compound]
LRAT inhibition, Inhibition [%] (recombinant LRAT enzyme): 6.8%

CCCCCCCCCCS(=O)(=O)NC(Cc1cccc(C(=N)N)c1)C(=O)N1CCN(S(C)(=O)=O)CC1 (centres unmarked) [LRAT-IA, DECS-(L)-F(3AMD)-Pzd(N-SO2Me)]
change of Epidermis thickness compared to control (vehicle only) on day 8 [1, 2]: +
change of Epidermis thickness compared to control (vehicle only) on day 8 [1, 3]: (+)
change of Epidermis thickness compared to control (vehicle only) on day 8 [1, 4]: +
change of Epidermis thickness compared to control (vehicle only) on day 8 [1, 5]: +
change of Epidermis thickness compared to control (vehicle only) on day 8 [1, 6]: +
change of Collagen III level (staining) compared to control (vehicle only) on day 8 (Collagen III; [2]): +
change of Collagen III level (staining) compared to control (vehicle only) on day 8 (Collagen III; [3]): 0
change of Collagen III level (staining) compared to control (vehicle only) on day 8 (Collagen III; [4]): ++
change of Collagen III level (staining) compared to control (vehicle only) on day 8 (Collagen III; [5]): 0
change of Collagen III level (staining) compared to control (vehicle only) on day 8 (Collagen III; [6]): +++
change of Collagen III level (staining) compared to control (vehicle only) on day 8 (Collagen III; LRAT inhibitor 0.1%, no retinol): ++

CCCCCCCCS(=O)(=O)NC(Cc1cccc(C(=N)N)c1)C(=O)N1CCN(S(=O)(=O)CCCCCCCC)CC1 (centres unmarked) [OCTS-(D,L)-F(3AMD)-Pzd(N—SO2Oct)]
LRAT inhibition, Inhibition [%] (recombinant LRAT enzyme): 89.9%

CC1=C(/C=C/C(C)=C/C=C/C(C)=C/CO)C(C)(C)CCC1 [Retinol, reference compound]
change of Epidermis thickness compared to control (vehicle only) on day 8 ([1]; Retinol 0.05% alone): +
change of Collagen III level (staining) compared to control (vehicle only) on day 8 (Collagen III; Retinol 0.05% alone): +

DODS-(L)-F(4NH2)-Pzd(N—SO2Me) [reference compound]
LRAT inhibition, Inhibition [%] (recombinant LRAT enzyme): 0%
